One may read the inhibition as the change of the read-out against control, counted positive when it falls. In general, half-life refers to the time in which the quantity being followed falls by half. Broadly, the EC50 is the concentration at which the effect is half-maximal. A high value points to a less potent agent. Usually CC50 stands for the concentration at which the toxic effect on the cells reaches its halfway point. Low readings indicate harm at low concentration, high ones better tolerance by the cells.

Data set [1] is described as follows: Half life in mouse liver microsomes at 0.5 uM. It counts as ADME, microsome. To be noted: for half-life at 0.5 µM: liver microsomes. For orientation: Liver microsomes are a subcellular fraction often used to study metabolism.
Data set [2] has as its system Influenza A virus. As to the kind of experiment: Inhibition of Influenza A virus AM2 expressed in xenopus laevis frog oocytes assessed as inhibition of channel current at 100 uM after 2 mins by two-electrode voltage clamp assay relative to control. It counts as cell-based. (In general: Two-electrode voltage clamp is typically applied to oocytes expressing channels or transporters.)

A short description of data set [3]: Half life in mouse liver microsomes at 1 uM in presence of NADPH generating system by LC-MS/MS analysis. It counts as ADME, microsome.
The test system of data set [4] is Influenza A virus. Kind of data set: microbe, parasite or virus in culture. The note with it: A/California/07/2009(H1N1), MDCK.
Description: Antiviral activity against Influenza A virus (A/California/07/2009(H1N1)) infected in MDCK cells expressing ST6Gal-1 assessed as reduction in plaque formation pretreated with virus for 30 mins followed by viral infection measured after 2 to 3 days by naphthalene black dye based assay
A short description of data set [5]: Cytotoxicity against MDCK cells after 48 hrs by neutral red uptake assay. It counts as cell-based, Canis lupus familiaris. The note with it: dog.
The subject of data set [6] is Influenza A virus. It counts as functional, A/California/07/2009(H1N1), MDCK.
Data set [7] in a line: Intrinsic clearance in mouse liver microsomes at 1 uM in presence of NADPH generating system by LC-MS/MS analysis. It counts as ADME, microsome. To be noted: read-out: CLH.
The nature of data set [8]: Permeability of the compound by PAMPA. The note with it: read-out: permeability. It counts as ADME. A general note: PAMPA measures passive passage across an artificial lipid membrane.
The nature of data set [9]: Half life in human liver microsomes at 1 uM in presence of NADPH generating system by LC-MS/MS analysis. It counts as ADME, microsome.
Data set [10] is described as follows: Intrinsic clearance in mouse liver microsomes at 0.5 uM. It counts as ADME, microsome. To be noted: read-out: CLH.
For data set [11], the system named is Influenza A virus. It counts as functional, organism-based. To be noted: A/California/07/2009(H1N1), MDCK, 30 nM.
The subject of data set [12] is Influenza A virus. It counts as functional, organism-based. The note with it: A/California/07/2009(H1N1), MDCK, 30 nM. The source holds these as a separate data set.
Data set [13] has as its system Influenza A virus. It counts as functional, organism-based. The note with it: A/California/07/2009(H1N1), A549, 30 nM.
Data set [14] has as its system Influenza A virus. It counts as functional, A/California/07/2009(H1N1), A549.
In data set [15] the test system is Influenza A virus. It counts as functional, organism-based. To be noted: A/California/07/2009(H1N1), MDCK, 10 uM.
In data set [16] the test system is Influenza A virus. It counts as functional, A/California/07/2009(H1N1), A549. The source holds these as a separate data set.
Data set [17] has as its system Influenza A virus. It counts as functional, A/California/07/2009(H1N1), A549. The source holds these as a separate data set.

The source made the active and inactive calls. The rule behind the calls is not given here.

As for `C[Si](C)(C)c1ccc(CNC23CC4CC(CC(O)(C4)C2)C3)cc1`, the t1/2 in data set [1] (microsomes, 0.5 µM) is reported as 4.4 min.
Take `Brc1ccc(CNC23CC4CC(CC(C4)C2)C3)[se]1`: the inhibition in the data set on Influenza A virus [2] is 56.1%. For the same compound, the half-life at 1 µM in [3] came out at 32.1 min. This compound also came in with an EC50 with Influenza A virus [4] of 2.2 µM. Moreover, the CC50 at 48 h in data set [5] came out at 82.1 µM. In addition, the Activity with Influenza A virus [6] worked out at 0%. For the same compound, the CLint scaled at 1 µM in [7] came out at 171 mL/min/kg.
With `OC12CC3CC(C1)CC(NCc1ccc(-c4ccccc4)s1)(C3)C2`, in the data set on Influenza A virus [2], the inhibition worked out at 0.3%. Moreover, a half-maximal response in the data set on Influenza A virus [4] (EC50) required 2.1 µM. In data set [5], this compound showed a CC50 at 48 h of 80.5 µM. Further, the Activity in the data set on Influenza A virus [6] turned out to be 27.9%.
Take `OC12CC3CC(C1)CC(NCc1nc(Br)cs1)(C3)C2`: in the data set on Influenza A virus [2], the inhibition stood at 3.9%. The compound also came in with an Activity in the data set with Influenza A virus [6] of 108%.
In the case of `CSc1ccccc1-c1ccc(CNC23CC4CC(CC(O)(C4)C2)C3)s1`, the inhibition in the data set with Influenza A virus [2] is 0%. Further, in the data set on Influenza A virus [6], the Activity was found to be 47.7%.
For the compound `Ic1ccc(CNC23CC4CC(CC(C4)C2)C3)s1`, the inhibition with Influenza A virus [2] came out at 91%. For the same compound, the half-life at 1 µM in data set [3] was found to be 24.5 min. Besides, in the data set on Influenza A virus [4], the midpoint of the response, the EC50, lay at 1 µM. This compound yielded a CC50 at 48 h in [5] of 70.2 µM. The compound also yielded an Activity in the data set with Influenza A virus [6] of 1.8%. The CLint scaled at 1 µM in data set [7] was found to be 224 mL/min/kg.
`c1csc(-c2cc(CNC34CC5CC(CC(C5)C3)C4)no2)c1` gave an Activity in the data set with Influenza A virus [6] of 0%.
Regarding `OC12CC3CC(C1)CC(NCc1ccc(Br)s1)(C3)C2`, in the data set on Influenza A virus [2], the inhibition was found to be 11.4%. In addition, the half-life at 1 µM in data set [3] and in data set [9] was > 145 min throughout. The same compound showed a half-maximal effective concentration (EC50) in the data set on Influenza A virus [4] of 1.1 µM. In addition, the CC50 at 48 h in data set [5] was 238 µM. Also, in data set [8], the Papp amounted to 25.3 ×10⁻⁶ cm/s. In the data set with Influenza A virus [6], this compound displayed an Activity of 3.9%. The CLint scaled at 1 µM in data set [7] is < 38 mL/min/kg.
Take `COc1ccc(-c2ccc(CNC34CC5CC(CC(O)(C5)C3)C4)s2)cc1OC`: the inhibition in the data set with Influenza A virus [2] was determined as 0%. This compound also showed an Activity in the data set with Influenza A virus [6] of 67.5%.
In turn, `OC12CC3CC(C1)CC(NCc1ccc(N4CCCCCC4)cn1)(C3)C2` yielded a half-life at 0.5 µM in data set [1] of 22.1 min. For the same compound, in data set [10], the CLint scaled at 0.5 µM amounted to 248 mL/min/kg.
For the compound `Brc1ccc(CNC23CCC4CC(CC(C4)C2)C3)s1`, the inhibition in the data set on Influenza A virus [2] amounted to 86.5%. In addition, the half-life at 1 µM in data set [3] was determined as 9.1 min. The EC50 in the data set on Influenza A virus [4] worked out at 0.6 µM. Also, the midpoint of cytotoxicity in data set [5], the CC50 at 48 h, lay at 43.1 µM. In the data set on Influenza A virus [6], this compound displayed an Activity of 0%. Besides, the CLint scaled at 1 µM in data set [7] was determined as 604 mL/min/kg.
Regarding `COC(=O)c1ccc(-c2ccc(CNC34CC5CC(CC(O)(C5)C3)C4)s2)cc1`, the inhibition with Influenza A virus [2] turned out to be 0%. In the data set with Influenza A virus [6], this compound gave an Activity of 52%.
As to `OC12CC3CC(C1)CC(NCc1cnc(N4CCCCC4)nc1)(C3)C2`, the half-life at 0.5 µM in [1] was found to be 19.4 min. Besides, the CLint scaled at 0.5 µM in data set [10] is 283 mL/min/kg.
As to `CCC(CC)O[C@@H]1C=C(C(=O)O)C[C@H](N)[C@H]1NC(C)=O` [OSELTAMIVIR CARBOXYLATE], the outcome with Influenza A virus [11] and in the data set on Influenza A virus [13] was inactive. Moreover, the midpoint of the response with Influenza A virus [4], the EC50, lay at 0.0024 µM. Moreover, the CC50 at 48 h in [5] was > 20 µM. In the data set with Influenza A virus [12], the outcome was Active.
As for `COc1ncc(-c2ccc(CNC34CC5CC(CC(O)(C5)C3)C4)s2)cn1`, the inhibition with Influenza A virus [2] was 0%. Also, in the data set with Influenza A virus [6], the Activity came out at 74%.
In data set [1], `c1nc(N2CCCCCC2)ncc1CNC12CC3CC(CC(C3)C1)C2` came in with a half-life at 0.5 µM of 0.8 min. Besides, in data set [10], the CLint scaled at 0.5 µM came out at 6760 mL/min/kg.
Turning to `COc1ccc(-c2ccc(CNC34CC5CC(CC(O)(C5)C3)C4)s2)cn1`, the inhibition in the data set on Influenza A virus [2] came to 0%. The compound further came in with an Activity in the data set with Influenza A virus [6] of 40.5%.
On to `OC12CC3CC(C1)CC(NCc1cnc(Br)s1)(C3)C2`, for which the inhibition in the data set on Influenza A virus [2] was 2.7%. Also, the Activity in the data set with Influenza A virus [6] turned out to be 102.1%.
`OC12CC3CC(C1)CC(NCc1ccc(-c4ccccc4Cl)s1)(C3)C2`: the inhibition in the data set on Influenza A virus [2] was 0%. For the same compound, in the data set on Influenza A virus [4], it took 2.5 µM to reach a half-maximal effect (EC50). Besides, in data set [5], the CC50 at 48 h was 65.2 µM. This compound returned an Activity in the data set on Influenza A virus [6] of 20.4%.
On to `OC12CC3CC(C1)CC(NCc1ccc(-c4ccc(F)cc4F)s1)(C3)C2`, for which the inhibition with Influenza A virus [2] is 0%. The compound further registered an Activity in the data set with Influenza A virus [6] of 44.1%.
`OC12CC3CC(C1)CC(NCc1cc(Br)cs1)(C3)C2`: the inhibition with Influenza A virus [2] is 6.5%. The half-life at 1 µM in [3] was 101 min. For the same compound, in the data set with Influenza A virus [4], the EC50 was 3.1 µM. The same compound gave a CC50 at 48 h in data set [5] of 381 µM. The compound further showed an Activity with Influenza A virus [6] of 31.4%. In addition, the CLint scaled at 1 µM in data set [7] is 54.5 mL/min/kg.
Take `OC12CC3CC(C1)CC(NCc1ccc(I)s1)(C3)C2`: the Activity worked out at 2.1 log10PFU/ml with Influenza A virus [14], 1.8 log10PFU/ml in the data set with Influenza A virus [16], 2.9 log10PFU/ml in the data set on Influenza A virus [17] and 2.5% in the data set on Influenza A virus [6]. Also, the inhibition in the data set with Influenza A virus [2] amounted to 3.2%. The result in the data set with Influenza A virus [15] was Active. In addition, the half-life at 1 µM in data set [3] and in [9] was > 145 min in each case. In the data set on Influenza A virus [4], this compound returned a concentration giving a half-maximal response (EC50) of 0.9 µM. In addition, the half-maximal cytotoxic concentration (CC50) at 48 h in data set [5] is 317 µM. The Papp in [8] is 20.4 ×10⁻⁶ cm/s. In addition, the CLint scaled at 1 µM in data set [7] was < 38 mL/min/kg.
With `OC12CC3CC(C1)CC(NCc1csc(Br)c1)(C3)C2`, the inhibition in the data set with Influenza A virus [2] was 1.9%. In the data set on Influenza A virus [4], this compound displayed an EC50 of 5.1 µM. In data set [5], this compound registered a CC50 at 48 h of 364 µM. Moreover, the Activity in the data set with Influenza A virus [6] turned out to be 31.3%.
Consider `c1csc(-c2ccc(CNC34CC5CC(CC(C5)C3)C4)s2)c1`, for which the inhibition with Influenza A virus [2] is 17.9%. Also, in data set [3], the half-life at 1 µM is 2.8 min. In addition, in the data set with Influenza A virus [4], the EC50 was determined as 12.2 µM. In data set [5], this compound showed a CC50 at 48 h of 19.5 µM. This compound displayed an Activity in the data set on Influenza A virus [6] of 58.5%. Besides, the CLint scaled at 1 µM in [7] was 1940 mL/min/kg.
Consider `Brc1ccc(CNC23CC4CC(CC(C4)C2)C3)s1`, for which, in the data set with Influenza A virus [2], the inhibition turned out to be 77.2%. Also, the half-life at 0.5 µM in [1] is > 145 min. The half-life at 1 µM in data set [3] is > 145 min. The EC50 with Influenza A virus [4] came to 2.9 µM. The same compound returned a CC50 at 48 h in data set [5] of 123 µM. The compound also yielded an Activity with Influenza A virus [6] of 3.2%. In addition, the CLint scaled at 0.5 µM in [10] was < 38 mL/min/kg. The CLint scaled at 1 µM in data set [7] is < 38 mL/min/kg.

These data come from ChEMBL document CHEMBL4266060, “Structure-Property Relationship Studies of Influenza A Virus AM2-S31N Proton Channel Blockers” (ACS Med Chem Lett, 2018).
